Reference: US20180050018A1, “PERIPHERAL-ANTICHOLINERGIC MUSCARINIC AGONIST COMBINATION” (Chase Pharmaceuticals Corporation, priority 2015, published 2018)

How the values were obtained:
[1] = oral and iontophoretic patch administration, with oxadiazole muscarinic agonists; cited from earlier work
[2] = cited from earlier work
Male Swiss mice [3] = assay: Antagonism of xanomeline-induced diarrhea in mice by oxybutynin (fecal pellet count); assay type: in vivo; details: oxybutynin i.p. 0.3 to 30 mg/kg, 30 minutes before xanomeline 30 mg/kg
Protocol: Male Swiss mice (4-6 weeks old), N=10 per treatment group were used. Animals were pretreated with i.p. oxybutynin (a representative peripheral muscarinic receptor antagonist) or vehicle; 30 minutes later animals were treated with xanomeline at a dose of 30 mg/kg that caused diarrhea (as determined in Experiment 1). The dose of oxybutynin ordinarily ranged from 0.3 to 30 mg/kg. Mice were placed individually in cages without any bedding materials. During the experiment the number of fecal pellets was counted at different time-points as outlined below: • T-1h to T0: counting of the accumulated fecal pellets excreted, • T0: administration of oxybutinin. • T30 min: administration of vehicle or xanomeline. • T 30 min to T 2.5 h: counting of accumulated fecal pellets excreted. • T+2.5 h to T+4.5 h: counting of accumulated fecal pellets excreted. The total number of fecal pellets for each mouse was counted over time. An analysis of variance (ANOVA) was performed on the results. Fisher's Protected Least Significant Difference was used for pairwise comparisons. The p value ≦0.05 were considered significant. Grubbs' test (http (hypertext transfer protocol) www at graphpad.com/quickcalcs/Grubbs1.cfm) was used to detect outliers for each parameter in each experimental group.

Male Swiss mice [4] = assay: T-maze continuous alternation task (T-CAT) in mice; assay type: in vivo
Description: Evaluation of Cognition with Oxybutynin and Xanomeline in the T-maze Alternation Task in Mice The T-maze continuous alternation task (T-CAT) is useful as model for studying compounds with cognitive enhancing properties. The T-maze consists of 2 choice arms and 1 start arm mounted to a square center. Manual doors are provided to close specific arms during the force choice alternation task. Male Swiss mice (4-6 weeks old), N=10 per treatment group were used, and were pre-treated with: • Oxybutynin at the dose that blocked fecal pellet excretion in Study 2 of Example 1. […] Mice were randomly assigned to one of the different experimental treatment groups. Each animal was identified by its group name, cage number, series (day) of experiment, and number (1 to 10) written with permanent ink on the tail. The T-maze apparatus is made of gray Plexiglas with a main stem (55 cm long×10 cm wide×20 cm high) and two arms (30 cm long×10 cm wide×20 cm high) positioned at 90 degree angle relative to the main stem. A start box (15 cm long×10 cm wide) is separated from the main stem by a guillotine door. Horizontal doors are also provided to close specific arms during the force choice alternation task.
The experimental protocol consisted of one single session, which started with 1 “forced-choice” trial, followed by 14 “free-choice” trials. In the first “forced-choice” trial, animals were confined for 5 seconds to the start arm and then were released while either the left or the right goal arm was blocked by the horizontal door. Animals then negotiated the maze, eventually entering the open goal arm, and returned to the start position. […]
The apparatus was cleaned between each animal using 40% ethanol. […] The percentage of alternation over the 14 free-choice trials was determined for each mouse and was used as an index of working memory performance. […] The drug-induced improvement of memory was calculated by setting the respective response of the saline/vehicle as 100% and that of the test group as 0% reversion. […]

Male Swiss mice [5] = assay: Dose-response to xanomeline in a mouse model of diarrhea (fecal pellet count); assay type: in vivo; details: xanomeline i.p. 0.3 to 30 mg/kg
Description: Male Swiss mice (4-6 weeks old), N=10 per treatment group were used, and treated intra-peritoneally (i.p.) with either vehicle (vehicle group) or increasing doses of xanomeline, a representative muscarinic agonist. Mice were randomly assigned to one of two experimental groups (vehicle; or increasing doses of xanomeline). Each animal was identified by its group name, cage number, series (day) of experiment, and number (1 to 10) written with permanent ink on the tail. Mice were placed individually in cages without any bedding materials. During the experiment the number of fecal pellets were counted at different time-points, starting one hour before the time of the administration of the test compound (TO), as outlined below: • T-1 h to T0: counting of the accumulated fecal pellets excreted. • T0: administration of the test compound, • T0 to T+2 h: counting of the accumulated fecal pellets excreted, • T+2 h to T+4 h: counting of the accumulated fecal pellets excreted, The total number of fecal pellets for each mouse was counted over time. An analysis of variance (ANOVA) was performed on the results. Fisher's Protected Least Significant Difference was used for pairwise comparisons; p values <0.05 were considered significant. Grubbs' test (http (hypertext transfer protocol) www at graphpad.com/quickcalcs/Grubbs1.cfm) was used to detect outliers for each parameter in each experimental group.

[6] = tested on: patients with Alzheimer disease; details: cited from earlier work
rats and monkeys = rats and monkeys (Schwarz 1999); cited from earlier work

**Q.** For `NC(=O)C(c1ccccc1)(c1ccccc1)[C@@H]1CCN(CCc2ccc3c(c2)CCO3)C1` [darifenacin], which “effectiveness relative to the other muscarinic antagonists” value [1] is on record?
**A.** less effective than the other muscarinic antagonists

**Q.** For `O=C(O[C@H]1CN2CCC1CC2)N1CCc2ccccc2[C@@H]1c1ccccc1` [solifenacin succinate, (1S)-(3R)-1-azabicyclo [2.2.2] oct-3-yl 3,4-dihydro-1-phenyl-2(1H)-iso-quinolinecarboxylate], which “half-life (in words)” value ([2]; in vivo) is on record?
**A.** long half-life

**Q.** Which “antagonism of xanomeline-induced diarrhea” value (Male Swiss mice [3]) does the source give for `CCN(CC)CC#CCOC(=O)C(O)(c1ccccc1)C1CCCCC1` (stereo not shown) [oxybutynin] here?
**A.** dose-dependently antagonized the diarrhea induced by xanomeline

**Q.** What about the “ability to perform the T-maze test after pretreatment” value (Male Swiss mice [4]; i.p. oxybutynin pretreatment 30 minutes before xanomeline) of the same compound?
**A.** restored the animals' ability to perform the T-maze test

**Q.** What about the “effectiveness relative to the other muscarinic antagonists” value [1] of the same compound?
**A.** less effective than the other muscarinic antagonists

**Q.** With `O=C(O[C@H]1C[C@H]2CC[C@@H](C1)[N+]21CCCC1)C(O)(c1ccccc1)c1ccccc1` [trospium chloride, Azoniaspiro [3β-benziloyloxy-(1α,5α)-nortropane-8,1′-pyrrolidine] chloride] as the compound, how does the average plasma half-life ([2]; absorbed amount) read?
**A.** about 18 hours

**Q.** Which results are given for `CCCCCCOc1nsnc1C1=CCCN(C)C1` [xanomeline, 3-(4-hexyloxy-1,2,5-thiadiazol-3-yl)-1-methyl-5,6-dihydro-2H-pyridine]?
**A.** diarrhea (number of fecal pellets excreted) (Male Swiss mice [5]): dose-dependently causes diarrhea; ability to perform the T-maze test at the higher dose (Male Swiss mice [4]; i.p. xanomeline, higher dose (dose that caused diarrhea)): animals were too sick to perform the test; performance in the T-maze (percentage of alternation, working memory) (Male Swiss mice [4]; i.p. xanomeline, mice): dose-dependent increase in performance in the T-maze; cognitive and behavioral symptoms compared to placebo ([6]; 6-month trial in Alzheimer disease patients (Bodick et al, 1997)): significantly improve cognitive and behavioral symptoms of Alzheimer disease; discontinuation rate due to side effects ([6]; Alzheimer's patient population (Mirza et al. 2003)): higher than 50%; side effects ([6]; bradycardia, gastro-intestinal distress, excessive salivation, sweating, Alzheimer disease patients): dose-dependent unacceptable side effects

**Q.** With `CO/N=C/C1=CCCN(C)C1` [milameline, (E)-N-methoxy-1-(1-methyl-1,2,5,6-tetrahydropyridin-3-yl)methanimine] as the compound, how does the “doses producing central cholinergic action relative to doses stimulating peripheral cholinergic receptors” value (rats and monkeys) read?
**A.** doses slightly lower than those stimulating peripheral cholinergic receptors
